Results published in US4698329A, “New renin-inhibitory peptides and their use” (Sankyo Company, Limited, priority 1984, dated 1987).
Square brackets hold non-standard residues; d marks the D form. Peptide text beside a SMILES is read from it. * marks the point of attachment. 1Nal = N[C@@H](Cc1cccc2ccccc12)C(=O)O; Sta = CC(C)C[C@H](N)[C@@H](O)CC(=O)O; Cbz = O=C(OCc1ccccc1)*; NHBu = CCCCN*; NHNH2 = NN*

Target: T1, human renin (Homo sapiens, UniProt P00797)
T1 sequence (P00797 67-406): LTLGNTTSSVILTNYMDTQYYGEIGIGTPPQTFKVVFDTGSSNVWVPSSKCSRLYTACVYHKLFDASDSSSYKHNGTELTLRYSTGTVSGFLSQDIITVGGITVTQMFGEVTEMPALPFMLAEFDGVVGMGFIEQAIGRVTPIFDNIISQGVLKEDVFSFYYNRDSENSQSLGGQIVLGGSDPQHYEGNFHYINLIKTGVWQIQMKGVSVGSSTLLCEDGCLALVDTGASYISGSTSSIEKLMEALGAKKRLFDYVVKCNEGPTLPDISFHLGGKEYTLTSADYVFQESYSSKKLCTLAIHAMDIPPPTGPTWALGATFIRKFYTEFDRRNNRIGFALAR
Assay: Inhibition of renin activity (human renin, sheep angiotensinogen)
Type: biochemical
Details: pH 7.3, 10 minutes at 37° C., mean of 3 or 4 experiments
Description: The ability of various compounds of the invention to inhibit the activity of renin was determined according to the following method, which follows essentially the procedure of Kokubu et al. [Hypertension, 5, 191-197 (1983)].
Specifically, each test compound was dissolved in 60% v/v aqueous ethanol. Human renin activity in the presence and absence of each compound was measured using sheep angiotensinogen. The total volume of 1 ml of assay mixture contained 0.1 mole/liter phosphate buffer (pH 7.3), human renin (equivalent to 0.5 ng angiotensin I per ml per minute), sheep angiotensinogen (equivalent to 200 ng angiotensin I), the indicated concentration of the test compound, 6% ethanol and angiotensinase inhibitors (10 mmole/liter sodium ethylenediaminetetraacetate and 3.4 mmole/liter 8-hydroxyquinoline). The mixture was allowed to react for 10 minutes at 37° C., and then the reaction was stopped by placing the reaction tube in a boiling water bath for 5 minutes. The mixture was then centrifuged and the supernatant (0.05-0.1 ml) was used to assay remaining angiotensin I.
An identical experiment was carried out, as a control, except that the test compound was omitted. From the values obtained were calculated the % inhibition of renin activity achieved by each test compound. The results are shown in the following Table, in which the compounds of the invention are identified by the numbers assigned to them in the foregoing list. The values given are the mean of 3 or 4 experiments.

[1] = concentration of test cpd. 1 × 10^-6 M
[2] = concentration of test cpd. 1 × 10^-5 M

SMILES: CCC(C)CNC(=O)C[C@H](O)[C@H](CC(C)C)NC(=O)C(Cc1cscn1)NC(=O)[C@H](Cc1cccc2ccccc12)NC(=O)OCc1ccccc1 (mixture of isomers) [Compound 238, N-(2-methylbutyl)-4(S)-[N-benzyloxycarbonyl-3-(1-naphthyl)-L-alanyl-3-(1,3-thiazol-4-yl)-DL-alanyl]amino-3(S)-hydroxy-6-methylheptanamide]
- % Inhibition (human renin) [1]: 98.2%

SMILES: CC(C)C[C@H](NC(=O)[C@H](Cc1c[nH]cn1)NC(=O)[C@H](Cc1cccc2ccccc12)NC(=O)OCc1ccccc1)[C@@H](O)CC(=O)O [Compound 3, 4(S)-[N-benzyloxycarbonyl-3-(1-naphthyl)-L-alanyl-L-histidyl]amino-3(S)-hydroxy-6-methylheptanoic acid] (Cbz-[1Nal]-His-[Sta]-OH)
- % Inhibition (human renin) [2]: 72%

SMILES: CCOC(=O)C[C@H](O)[C@H](CC(C)C)NC(=O)[C@H](Cc1c[nH]cn1)NC(=O)[C@H](Cc1cccc2ccccc12)NC(=O)OCc1ccccc1 [Compound 5, ethyl 4(S)-[N-benzyloxycarbonyl-3-(1-naphthyl)-L-alanyl-L-histidyl]amino-3(S)-hydroxy-6-methylheptanoate] (Cbz-[1Nal]-His-[Sta]-OEt)
- % Inhibition (human renin) [2]: 79%

SMILES: CC(C)C[C@H](NC(=O)[C@H](Cc1c[nH]cn1)NC(=O)[C@H](Cc1cccc2ccccc12)NC(=O)OCc1ccccc1)[C@@H](O)CC(=O)N1CCC(c2ccccc2)CC1 [Compound 36, 1-{4(S)-[N-benzyloxycarbonyl-3-(1-naphthyl)-L-alanyl-L-histidyl]amino-3(S)-hydroxy-6-methylheptanoyl}-4-phenylpiperidine]
- % Inhibition (human renin) [2]: 84%

SMILES: CC(C)C[C@H](NC(=O)[C@H](Cc1c[nH]cn1)NC(=O)[C@H](Cc1cccc2ccccc12)NC(=O)OCc1ccccc1)[C@@H](O)CC(=O)NN [Compound 38, 4(S)-[N-benzyloxycarbonyl-3-(1-naphthyl)-L-alanyl-L-histidyl]amino-3(S)-hydroxy-6-methylheptanoic acid hydrazide] (Cbz-[1Nal]-His-[Sta]-NHNH2)
- % Inhibition (human renin) [2]: 89%

SMILES: CC(C)C[C@H](NC(=O)[C@H](Cc1c[nH]cn1)NC(=O)[C@H](Cc1cccc2ccccc12)NC(=O)OCc1ccccc1)[C@@H](O)CC(=O)NNC(=O)CCCc1ccccc1 [Compound 39, N^1 -{4(S)-[N-benzyloxycarbonyl-3-(1-naphthyl)-L-alanyl-L-histidyl]amino-3(S)-hydroxy-6-methylheptanoyl}-N^2-(4-phenylbutyryl)hydrazine]
- % Inhibition (human renin) [2]: 84%

SMILES: COC(=O)[C@@H](O)[C@H](CC(C)C)NC(=O)[C@H](Cc1c[nH]cn1)NC(=O)[C@H](Cc1cccc2ccccc12)NC(=O)OCc1ccccc1 [Compound 62, methyl 3(S)-[N-benzyloxycarbonyl-3-(1-naphthyl)-L-alanyl-L-histidyl]amino-2(S)-hydroxy-5-methylhexanoate]
- % Inhibition (human renin) [2]: 53%

SMILES: CCCCNC(=O)C[C@H](O)[C@H](CC(C)C)NC(=O)[C@H](Cc1c[nH]cn1)NC(=O)[C@H](Cc1cccc2ccccc12)NC(=O)OCc1ccccc1 [Compound 64, 4(S)-[N-benzyloxycarbonyl-3-(1-naphthyl)-L-alanyl-L-histidyl]amino-N-butyl-3(S)-hydroxy-6-methylheptanamide] (Cbz-[1Nal]-His-[Sta]-NHBu)
- % Inhibition (human renin) [2]: 95%

SMILES: CC[C@H](C)CNC(=O)C[C@H](O)[C@H](CC(C)C)NC(=O)[C@H](Cc1c[nH]cn1)NC(=O)[C@H](Cc1cccc2ccccc12)NC(=O)OCc1ccccc1 [Compound 65, 4(S)-[N-benzyloxycarbonyl-3-(1-naphthyl)-L-alanyl-L-histidyl]amino-3(S)-hydroxy-6-methyl-N-[S-(-)-2-methylbutyl]heptanamide]
- % Inhibition (human renin) [2]: 99%

SMILES: CCNC(=O)C[C@H](O)[C@H](CC(C)C)NC(=O)[C@H](Cc1c[nH]cn1)NC(=O)[C@H](Cc1cccc2ccccc12)NC(=O)OCc1ccccc1 [Compound 66, 4(S)-[N-benzyloxycarbonyl-3-(1-naphthyl)-L-alanyl-L-histidyl]amino-N-ethyl-3(S)-hydroxy-6-methylheptanamide] (Cbz-[1Nal]-His-[Sta]-NHEt)
- % Inhibition (human renin) [2]: 96%

SMILES: CC[C@H](C)[C@@H](CO)NC(=O)C[C@H](O)[C@H](CC(C)C)NC(=O)[C@H](Cc1c[nH]cn1)NC(=O)[C@H](Cc1cccc2ccccc12)NC(=O)OCc1ccccc1 [Compound 67, N-{4(S)-[N-benzyloxycarbonyl-3-(1-naphthyl)-L-alanyl-L-histidyl]amino-3(S)-hydroxy-6-methylheptanoyl}-L-isoleucinol]
- % Inhibition (human renin) [2]: 98%

SMILES: CCC(C)CNC(=O)C[C@H](O)[C@H](CC(C)C)NC(=O)[C@@H](Cc1c[nH]cn1)NC(=O)[C@H](Cc1cccc2ccccc12)NC(=O)OCc1ccccc1 (stereo partly drawn) [Compound 93, 4(S)-[N-benzyloxycarbonyl-3-(1-naphthyl)-L-alanyl-D-histidyl]amino-3(S)-hydroxy-6-methyl-N-(2-methylbutyl)heptanamide]
- % Inhibition (human renin) [2]: 99%

SMILES: CCC(C)CNC(=O)C[C@H](O)[C@H](CC(C)C)NC(=O)[C@H](CC(C)C)NC(=O)[C@H](Cc1cccc2ccccc12)NC(=O)OCc1ccccc1 (stereo partly drawn) [Compound 207, N-(2-methylbutyl)-4(S)-[N-benzyloxycarbonyl-3-(1-naphthyl)-L-alanyl-L-leucyl]amino-3(S)-hydroxy-6-methylheptanamide]
- % Inhibition (human renin) [1]: 98.4%

SMILES: CC[C@H](C)[C@@H](CO)NC(=O)C[C@H](O)[C@H](CC(C)C)NC(=O)[C@H](CC(C)C)NC(=O)[C@H](Cc1cccc2ccccc12)NC(=O)OCc1ccccc1 [Compound 208, N-{4(S)-[N-benzyloxycarbonyl-3-(1-naphthyl)-L-alanyl-L-leucyl]amino-3(S)-hydroxy-6-methylheptanoyl}-L-isoleucinol]
- % Inhibition (human renin) [1]: 99.1%
